Data taken from PMC11847541, “Liver fatty acid binding protein FABP1 transfers substrates to cytochrome P450 4A11 for catalysis” (The Journal of Biological Chemistry, 2025).
Several values for one entry are separate records, joined by “and”; a condition that tells them apart may be missing. Equal values may be shown once. Entries after “also recorded” stand apart in the source; their conditions may differ. Read-outs that look alike come from different tables or passages of the source.

How the values were obtained:
[1] = target: T1, P450 4A11 (Homo sapiens, UniProt Q02928); set-up: made in house; host or cells: E. coli; method as in PMID 25203493; conditions: cited from earlier work
T1 sequence (Q02928 5-519): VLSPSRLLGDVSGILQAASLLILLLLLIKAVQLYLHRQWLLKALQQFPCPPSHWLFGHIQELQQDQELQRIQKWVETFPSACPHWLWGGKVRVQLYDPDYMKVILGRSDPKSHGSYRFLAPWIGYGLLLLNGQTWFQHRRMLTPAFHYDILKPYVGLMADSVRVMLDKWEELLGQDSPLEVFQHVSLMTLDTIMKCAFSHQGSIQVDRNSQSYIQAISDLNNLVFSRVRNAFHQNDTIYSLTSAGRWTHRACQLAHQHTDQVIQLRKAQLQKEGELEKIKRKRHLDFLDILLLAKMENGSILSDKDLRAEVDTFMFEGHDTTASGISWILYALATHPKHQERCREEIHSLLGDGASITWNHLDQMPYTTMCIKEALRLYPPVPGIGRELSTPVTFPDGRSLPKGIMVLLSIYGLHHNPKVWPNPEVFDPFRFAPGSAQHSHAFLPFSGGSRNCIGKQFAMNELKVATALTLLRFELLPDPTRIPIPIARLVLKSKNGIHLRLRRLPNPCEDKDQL

[2] = target: T2, FABP1 (Homo sapiens, UniProt P07148); assay: Stopped-flow kinetics of DAUDA binding to FABP1
T2 construct: GST (N, cleaved yes); made in house; host or cells: Escherichia coli DH5α
T2 sequence (P07148 with tags, fused parts or gaps): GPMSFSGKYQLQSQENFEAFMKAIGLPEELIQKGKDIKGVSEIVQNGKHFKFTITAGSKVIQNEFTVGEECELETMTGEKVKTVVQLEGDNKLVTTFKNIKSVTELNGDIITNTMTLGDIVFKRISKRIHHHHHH
Description: In order to measure the rate of binding of DAUDA to FABP1, four concentrations (0.5–12.5 μM) of DAUDA were rapidly mixed with FABP1 (0.5 μM), and the gain of fluorescence (at 482 nm, Fig. 4A) was monitored over time (Fig. 6, A–D). […] A kon value (k4) of 9.0 ± 0.2 × 10^7 M^−1 s^−1 was calculated from the data (see the Experimental procedures section) (Fig. 6F).
Figure 6 Kinetics of binding of DAUDA to FABP1. FABP1 (0.5 μM) was mixed with (A) 0.5 μM, (B) 2.5 μM, (C) 5 μM, and (D) 12.5 μM DAUDA to yield the binding traces shown. DAUDA–FABP1 was excited (λex = 335 nm) as in Fig. 4 and total fluorescence signal >420 nm was collected. Data were fit to double exponential curves, and (E) the rate of the fast phase was extracted and plotted against DAUDA concentration. The data curve was fit to a Michaelis–Menten-type hyperbola. Each trace corresponds to ≥6 averaged replicate traces. In part A, the binding of DAUDA (0.5 μM) was proportional to the disappearance of protein (0.5 μM). The reciprocal concentration of FABP1 was plotted against time in part F, and the slope of the linear portion (linear regression in red) of that curve ([77]) gave an on-rate (kon) of 9.0 × 10^7 M^−1 s^−1. DAUDA, 11-dansylaminoundecanoic acid; FABP1, fatty acid binding protein.
Determination of the DAUDA on-rate (kon) to FABP1 was performed by mixing FABP1 (1 μM) and DAUDA ([…], see “Preparation of DAUDA stock solutions”) solutions (both in 100 mM potassium phosphate buffer, pH 7.4) in equal proportion (yielding a twofold dilution of all reaction components) using an OLIS stopped-flow spectrofluorometer with the parameters set as described earlier (see “P450 4A11 kon determinations”). […] At least six replicate measurements were recorded, the spectra were processed such that the fluorescence gain (from DAUDA binding) began at an (x, y) intercept of (0, 0), and the spectra were averaged and fit to double exponential plots in GraphPad Prism, and the rates for the fast (kon) and slow phases of binding were extracted. Then, as the first experiment was recorded by mixing equimolar (1 μM) concentrations of FABP1 and DAUDA and the binding was rapid, we approximated the binding as 2A → C (i.e., mathematically equivalent to A + B → C when the depletion of B is equal to the depletion of A ([77])). We plotted [FABP]^−1 as a function of time and fit the data to a linear equation (the slope of which is kon).

[3] = Stability of DAUDA stock solutions; assay type: physicochemical
Description: DAUDA stock solutions (10 mM, prepared in C2H5OH) could be stored at −20 °C for up to 1 week with no significant decay of the UV spectrum and no formation of degradation peaks in the LC–MS chromatogram. Storage under these conditions for more than 1 week did compromise sample integrity (and the samples were discarded). We later observed that DAUDA stock solutions (10 mM) prepared in 50 mM K2CO3 and frozen at −80 °C could undergo several freeze–thaw cycles over the course of 2 months with no significant decay of the UV spectrum and no formation of degradation peaks in the LC–MS chromatogram.

[4] = target: T2, FABP1; assay: Fluorescence titration of DAUDA with FABP1 (reverse titration); assay type: binding; conditions: DAUDA 50 nM, FABP1 titrated, quadratic fit
Description: Binding of DAUDA to FABP1 was assessed in a “reverse titration” where FABP1 was titrated into a fixed concentration of DAUDA (50 nM), yielding a characteristic gain of fluorescence (Fig. 4A) at 482 nm. FABP1 was titrated into a solution of DAUDA (“reverse titration”) and not vice versa because of the intrinsic fluorescence of DAUDA (Fig. S11E), which overlaps with the spectrum of DAUDA–FABP1 (Fig. 4A). The intrinsic fluorescence of DAUDA was generally only problematic at concentrations much higher (>500 nM) than used in the assays (50 nM), though we sought to eliminate this additional variable by performing the reverse titration to estimate the Kd.
Figure 4 Fluorescence titration of DAUDA with FABP1 (“reverse” titration).A, fluorescence spectra (λex = 335 nm) of DAUDA (0.05 μM) collected with increasing concentrations of FABP1 (0–1.25 μM). The binding of DAUDA to FABP1 is accompanied by a gain of fluorescence, indicated with an arrow. B, titration curve calculated with data points (n = 1) at the observed fluorescence maximum (482 nm) and plotted versus concentration of FABP1. Data were fit to a quadratic equation. DAUDA, 11-dansylaminoundecanoic acid; FABP1, fatty acid binding protein. […]

[5] = target: T2, FABP1; conditions: cited from earlier work
[6] = target: T1, P450 4A11; assay: Equilibrium binding titrations of P450 4A11 with lipids (heme Soret spectral shift); conditions: P450 1 µM, DAUDA 1 nM to 10 µM
Description: Affinity of palmitate and 16-OH palmitate for P450 4A11 (1 μM) was assessed by monitoring the blue shift (from ∼420 nm to ∼390 nm) of the P450 heme Soret band as a substrate binds and displaces the sixth axial heme ligand (H2O) to yield pentacoordinated heme (“type I” shift) ([26]).
P450 4A11 (1 μM) was titrated with (A) palmitate and (B) 16-OH palmitate in a 1.0 cm pathlength cell. Difference plots were calculated from absorbance maxima (∼390 nm) and minima (∼420 nm), and the data were fit to a hyperbolic equation. The insets in each panel are the difference spectra between a cuvette that received the lipid substrate and a cuvette that received solvent alone. Each data point corresponds to one independent replicate.
Equilibrium binding titrations with P450 4A11 (1 μM) were performed in buffer (100 mM potassium phosphate [pH 7.4]) as described previously ([44], [56]). Briefly, a baseline was first acquired on an OLIS-Cary 14 spectrophotometer set to scan from 350 to 500 nm in 1 cm glass cuvettes. […] The cuvettes were mixed with a plumper after additions, and spectra were recorded. The spectra were exported into Microsoft Excel software, and the absorbance values at 418 nm were subtracted from those at 390 nm and the values were plotted as a function of lipid concentration.
Titration of P450 4A11 with DAUDA. The P450 concentration was 1 µM and the DAUDA concentration was varied using a geometric series from 1 nM to 10 µM. […] The increase in absorbance in the UV region is due to the strong chromophore in the DAUDA dansyl moiety (Fig. S8).

[7] = target: T3, P450 4A11 (Homo sapiens, UniProt Q02928); assay: Alexa-FABP1 and P450 4A11 association kinetics (stopped-flow fluorescence); assay type: binding
T3 construct: made in house; host or cells: E. coli
T3 sequence (Q02928 5-519): T1 sequence (Q02928 5-519)
T3 sequence (P07148 with tags, fused parts or gaps partner): T2 sequence (P07148 with tags, fused parts or gaps)
Description: We then investigated whether the rate of protein–protein association could be estimated using our fluorescent construct. A solution of Alexa-FABP1 (125 nM final concentration) was rapidly mixed with P450 4A11 (125 Nm final concentration), and Alexa-488 fluorescence was monitored over time. The data were fit to a single exponential equation and yielded an association rate of 2.0 ± 0.2 s^−1 (Fig. 10B).
To estimate a rate of interaction for FABP1 and P450, we loaded the protein–protein binding data (Fig. 10B) and fit the data to a simple model, E+F↔EF , as described in the Experimental procedures section. The software fit a kon rate of 2.0 × 10^7 M^−1 s^−1, close to that estimated by using the extracted binding rate ∼2 s^−1 at the concentration (0.125 μM) of either reaction component (i.e., 2 s^−1/0.125 μM = 16 μM^−1 s^−1 = 1.6 × 10^7 M^−1 s^−1).
Mixing solutions (2 ml) of (A) Alexa-FABP1 (0.25 μM [estimated by A280 prior to conjugation reaction, accounting for dilution, and assuming no protein loss during the reaction as described earlier]) and (B) P450 4A11 (0.25 μM) were prepared in potassium phosphate buffer (100 mM, pH 7.4) and loaded into the stopped-flow spectrofluorometer described earlier. The instrument (1.24 mm slit width) was set with an excitation wavelength of 470 nm and Oriel end-on filter for emission >495 nm. The fluorescence maximum of Alexa-FABP1 is 510 nm as described earlier, and stimulation is observed upon protein–protein binding (see “Titrations of Alexa-FABP1 with P450 4A11”). At least six replicate measurements were recorded, the spectra were processed such that the fluorescence gain (from DAUDA binding) began at an (x, y) intercept of (0, 0), and the spectra were averaged. A smoothing factor of 0.4 was applied to the data (in Microsoft Excel), and the resulting curve was fit to a single exponential plot in GraphPad Prism, and the rate of association was extracted. The data were loaded into KinTek Explorer and fit to a minimal kinetic model of protein–protein association (i.e., E+F↔EF ), and a second-order rate constant for the association was extracted.

[8] = target: T4, P450 101A1 (P450cam) (Pseudomonas putida, UniProt P00183); assay: Control fluorescence titration of Alexa-FABP1 with P450 101A1 (P450cam); assay type: binding, bacterial; conditions: 100 mM KPhos
T4 construct: made in house
T4 sequence (P00183 whole entry, looked up): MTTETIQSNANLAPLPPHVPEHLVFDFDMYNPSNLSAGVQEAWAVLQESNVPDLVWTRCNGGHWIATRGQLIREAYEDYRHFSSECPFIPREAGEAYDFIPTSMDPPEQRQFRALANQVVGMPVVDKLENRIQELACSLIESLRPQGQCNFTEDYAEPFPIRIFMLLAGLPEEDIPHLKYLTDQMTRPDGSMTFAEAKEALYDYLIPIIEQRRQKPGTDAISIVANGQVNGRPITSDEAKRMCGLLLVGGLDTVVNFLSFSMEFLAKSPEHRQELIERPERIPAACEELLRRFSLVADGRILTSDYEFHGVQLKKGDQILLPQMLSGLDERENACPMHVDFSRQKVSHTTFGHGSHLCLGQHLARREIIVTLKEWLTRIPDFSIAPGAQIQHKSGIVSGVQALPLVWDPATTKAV
Description: (§1) The Alexa-FABP1 construct was tested for P450 binding in a fluorescence titration with P450 4A11.
(§2) Figure 10 Binding of Alexa-FABP1 to P450 4A11.A, equilibrium binding titration of Alexa-FABP1 (25 nM) with P450 4A11 as the titrant (0–50 nM). Titrations were performed in 10 mM (closed circles) or 100 mM (open circles) potassium phosphate buffer (pH 7.4). A control reaction was performed with P450 101A1 (P450cam) in 100 mM KPhos (open squares). The change in fluorescence upon protein–protein binding was normalized to the corresponding change in a buffer control. […] Each data point corresponds to one independent replicate, ≥3 biological replicates were collected to confirm the effect. B, kinetics of binding of Alexa-FABP1 (0.125 μM) and P450 4A11 (0.125 μM). Six traces were averaged, and the data were fit to a single exponential curve (in red). The extracted binding rate was 2.0 ± 0.2 s^−1. FABP1, fatty acid binding protein.

[9] = target: T3, P450 4A11; assay: Fluorescence titration of Alexa-FABP1 with P450 4A11; assay type: binding
Description: as §1, §2
Alexa-FABP1 (25 nM [estimated by an asborbance at 280 nm prior to conjugation reaction, accounting for dilution, and assuming no protein loss during the reaction]) was prepared in potassium phosphate buffer (10 mM or 100 mM, pH 7.4) in a 1 ml glass cuvette. A buffer baseline was recorded using an OLIS DM-45 spectrofluorometer (1.24 mm slit width) with excitation wavelength of 470 nm and scanning emission spectra from 500 to 600 nm. P450 4A11 (stored in 100 mM potassium phosphate buffer [pH 7.4] containing 20% glycerol) was titrated (0–50 nM) into the Alexa-FABP1 solution. The same experiment was repeated but with the P450 4A11 buffer used as the titrant to normalize the data for any solvent effect. […] As stimulation was observed by the P450 interaction, the value of one was subtracted from the normalized fluorescence values so that the curve would have an (x, y) intercept of (0, 0). Kd values were calculated fitting plots of the normalized fluorescence at emission maximum versus concentration of P450 4A11 using a quadratic equation in GraphPad Prism software.

Compound: O=C(O)CCCCCCCCCCCO [12-OH laurate]
- P450 heme Soret spectral shift induced [1]: typical type I spectral shift

Compound: CN(C)c1cccc2c(S(=O)(=O)NCCCCCCCCCCC(=O)O)cccc12 [DAUDA, 11-dansylaminoundecanoic acid]
- kon ([2]; FABP1 0.5 μM, DAUDA 0.5 μM, read-out: kon of DAUDA to FABP1 (k4)): 9e+07 M⁻¹ s⁻¹
- koff ([2]; calculated from kon and Kd): 5 s⁻¹
- koff from FABP1 relative to koff from P450 4A11 ([2]; faster): 25 fold
- kon of DAUDA to FABP1 relative to palmitate binding to P450 4A11 ([2]; faster): > 2000 fold
- storage time with no significant decay of UV spectrum and no degradation peaks ([3]; 10 mM in 50 mM K2CO3, −80 °C, several freeze–thaw cycles): 2 months
- storage time with no significant decay of UV spectrum and no degradation peaks ([3]; 10 mM in C2H5OH, −20 °C): up to 1 week
- Kd [4]: 56 nM
- Kd ([5]; human ortholog, high-affinity site, read-out: Kd,1): 200 nM
- Kd ([5]; human ortholog, low-affinity site, read-out: Kd,2): > 3300 nM
- Kd ([5]; literature estimate, high-affinity site, read-out: Kd): > 460 nM
- binding to P450 4A11 (type I spectral shift) [6]: not detected; also recorded: did not bind

Compound: Alexa-FABP1: FABP1 labeled at Cys-71 with Alexa-488 C5 maleimide
- rate of protein–protein association ([7]; Alexa-FABP1 0.125 μM, P450 4A11 0.125 μM, single exponential): ~2 s⁻¹ and 2.0 ± 0.2 s⁻¹
- kon of FABP1–P450 4A11 association (k6) ([7]; KinTek fit to E+F↔EF): ~2e+07 M⁻¹ s⁻¹
- change of Alexa-FABP1 fluorescence [8]: mild attenuation of fluorescence
- decrease of Kd on reducing ionic strength ([9]; 100 mM to 10 mM potassium phosphate): ~38 fold
- Kd ([9]; dependent on ionic strength): 3 to 124 nM
